Data from patent US20230081357A1, “TOPICAL COMPOSITION COMPRISING CANNABIDIOL” (CURALEAF INTERNATIONAL LIMITED, priority 2020, published 2023).

Tests used:
[1] = tested on: transfected rat basophil cells (RBL-2H3 ATCC® CRL-2256™) expressing the IgE human receptor (FcRI); assay: Anti-itch activity: basophil degranulation, β-hexosaminidase release; type: cell-based; conditions: for % degranulation inhibition: basophils activated with anti-IgE receptor
Text: In vivo, a basophil cell degranulation mediated by IgE triggers an immediate allergic reaction characterized by the quick release of pre-stored inflammatory mediators (histamine, leukotrienes, thromboxane, basophilic enzymes, hexosaminidases), causing redness, rashes, itchiness and local inflammatory reactions. The ability of a composition to inhibit the degranulation of basophil cells is an indicator of its capability to inhibit the above described symptoms and above them mainly itching.
The test is carried out on a cell line of transfected rat basophil cells (RBL-2H3 ATCC® CRL-2256™) expressing the IgE human receptor (FcRI). Cells are kept in RPMI containing 10% FCS and 2 mM glutamine.
Untreated cells were used as negative control for the spontaneous degranulation.
A positive control consisting in cells exposed to anti-human IgE receptor antibodies was used to evaluate the maximal degranulation level.
Cell lysates in 1% Triton were also analyzed in order to evaluate the highest possible release of the analyzed molecules.
The release of β-hexosaminidase during degranulation was monitored on RBL-SX38 cell supernatant added with […]-N-acetyl-β-D-glucosamine (Sigma-Aldrich) in 0.1 M citrate buffer (pH 6.2) and incubated at 37° C. for 120 min. The reaction was terminated using 0.1M carbonate buffer (pH 10), and the absorbance was read at 405 nm (OD405).
The supernatant of untreated cells was used as negative control. The maximal stimulation of RBL-SX38 was evaluated on a 1% Triton X-100 lysate of the cell monolayer.
Sodium hyaluronate in serial dilutions, as indicated in the following Table 11, was also used as a control of the inhibition of basophil degranulation.
The inhibition degranulation percentage of activated basophil with IgE receptor has been calculated with the following formula: […]

[2] = tested on: IL-1α; assay: In vitro soothing efficacy, SLS-induced IL-1α release by ELISA; type: cell-based, human; conditions: SLS 0.30% for 70 minutes, then CBD-S5 diluted at 2%, positive control = SLS only
Description: (§1) The assay assessed quantitatively the effects of the sample in protecting skin cells and in inhibiting the […] reaction caused by moderate irritating agents as sodium lauryl sulfate (SLS) by means of a multilayer in vitro skin cell model.
(§2) The inhibition of the SLS-induced release of IL-1α cytokine was investigated (through specific ELISA assay) following exposure to the tested substance and respect to skin untreated samples. Cell viability was determined by the MTT assay.
(§3) Both assays used a reconstructed artificial human skin model comprising normal human epidermal keratinocytes, growing as an integrated three-dimensional cell culture model, perfectly mimicking the human skin in vitro. […] The model was supplied by Episkin (Lion, Batch 20-RHE-041).
Epidermis was treated for 70 minutes with SLS at 0.30% in order to induce IL-1α synthesis and release. […] As negative control, two epidermis units were treated with phosphate buffer, while epidermis units treated for 70 minutes with SLS 0.30% were used as positive control. Test was carried out in two replicates.
For IL-1α assay, the culture medium has been collected at 6 and 24 hours. […] IL-1α was determined in the medium culture of treated and not treated epidermis, using a direct ELISA test (Enzyme-linked immunosorbent assay). […] Samples were read at 450 nm. […]
Cytokine concentration was determined using a standard curve. […]

[3] = tested on: human hair dermal papilla cells (HHDPCs); assay: Mitogenesis in hair bulb cells, cell viability by MTT after starving; type: cell-based; conditions: positive control (human insulin), % of negative control
Description: (§4) The test is carried out on human hair dermal papilla cells (HHDPCs) with fibroblast-like morphology. Cells are cultured in MEM containing 10% FBS and antibiotics.
(§5) Cells have been seeded in 24 wells plates and allowed to grow for 24 h at 37° C. and 5% CO2. Cells underwent starvation in serum-free medium for 6 hours before treatment.
(§6) The niosome dispersion was dissolved directly in the medium culture. The test was carried out in three replicates.
(§7) After 24- and 48-hours exposure the cell viability and the total cellular protein content were assessed on separate plates. Untreated cells were used as negative controls (NC); cells treated with human insulin were used as positive control (PC).
The cell viability was assessed by incubating the tissues for 2 hours with MTT (3-[4,5-dimethylthiazol-2-yl]-2,5-diphenyl tetrazolium bromide) solution. The precipitated formazan was then extracted using DMSO and quantified spectrophotometrically. The absorbance at 570 nm (OD570) was measured with a microplate reader (Tecan, Infinite 200 PRO), deducting background at 650 nm (OD650).
The cell viability was expressed in percentage terms according to the following formula: […]

[4] = tested on: human hair dermal papilla cells (HHDPCs); assay: Mitogenesis in hair bulb cells, total cellular protein content (Bradford); type: cell-based; conditions: positive control (human insulin), % of negative control
Description: as §4, §5, §6, §7
The total cellular protein content was tested according to Bradford method. Cells at the end of the treatment were washed twice with PBS and lysed by treatment with purified water at 4° C. Dye reagent was added to each sample. […] Reading was made at 595 nm with a colorimeter equipped with a plate-reader.
To quantify proteins, a standard plot with albumin was designed and the sample concentrations were determined on the bases of their absorbance values using the interpolation plot formula. Mean values of every set of data were calculated, and for each sample the percentage of increase in the protein synthesis was determined by comparison with the negative control (NC) according to the following formula: […]

[5] = tested on: reconstituted human epidermis (RHE); assay: In vitro irritation test on reconstituted human epidermis, MTT cell viability; type: cell-based; conditions: 60 minutes treatment, 24 hours incubation, % of negative control, 25 μg CBD-S5 or 30 μL 5% SDS
Description: The in vitro test consists of a topical exposure of the test substance on reconstituted human epidermis (RHE) followed by a cell viability test.
Cell viability is determined by the conversion of MTT (3-(4,5-dimethylthiazol-2-yl)-2,5-diphenyltetrazolium bromide) to a formazan blue salt, which is quantitatively measured after extraction from tissue. Conversion occurs via the mitochondrial enzyme succinate dehydrogenase, which is only active in living cells, causing the MTT tetrazole ring to open and formazan to form. Assessment of the viability of tissues exposed to the test substance compared to the negative control (treated with Dulbecco's phosphate buffered saline—DPBS) and the positive control (treated with sodium dodecyl sulphate—SDS) is used to predict skin irritation potential.
The reconstructed human epidermis model consists of normal human-derived epidermal keratinocytes cultured to recreate a highly differentiated multilayered human epidermis. […]
The optical density of the extracted formazan is determined spectrophotometrically at a wavelength of 570 nm using the μQUANT BIO TEK Microplate Spectrophotometer. Relative cell viability is calculated for each tissue as % of the mean optical density of the negative control tissues.

[6] = tested on: IL-1α; assay: Particulate (PM2.5) resistance test, IL-1α release by ELISA; type: cell-based, human; conditions: sample alone, 24 h at 37° C.; 30 μl CBD-S5, 30 μl SDS 5% or 20 μg PM2.5; untreated RHE (NC) = 100%
Description: After incubation at 37° C. for 24 h in a controlled atmosphere of 5% CO2, the cell viability of the RHE sample was assessed by MTT assay, as described in Example 5A, while the culture medium was collected and analyzed for IL-1α release by ELISA assay, using an EMIL1ALPHA kit (Invitrogen-Thermo Scientific) with the following procedure.
100 μl of medium from each treatment was transferred to wells coated with anti-human IL-1α and incubated for 2 hours at room temperature. At the end of the incubation, the medium was removed and the wells were washed 4 times with 1× Wash Buffer. 100 μl of biotinylated antibody was added to each well and incubated for 1 hour at room temperature. At the end, the wells were washed 4 times with 1× Wash Buffer, treated with 100 μl of Streptavidin-HRP solution for 45 minutes at room temperature and finally washed 4 times with 1× Wash Buffer. 100 μl of TMB substrate was added to each well and incubated for 10 minutes in the dark. Finally, 100 μl of stop solution was added to each well and spectrophotometric readings were taken at wavelengths of 450 nm and 550 nm using the μQUANT BIO TEK Microplate Spectrophotometer instrument.
Changes in IL-1α levels released from the RHE tissue after each treatment were expressed as % values compared to the untreated RHE (NC) used as control (100%).

[7] = In vitro soothing efficacy, cell viability by MTT after SLS; type: cell-based; conditions: human; read-out: % mean cell viability (standard deviation)
Description: as §1, §2, §3
Epidermis was treated for 70 minutes with SLS at 0.30% in order to induce IL-1α synthesis and release. […] As negative control, two epidermis units were treated with phosphate buffer, while epidermis units treated for 70 minutes with SLS 0.30% were used as positive control. […]
Epidermis units were treated with 1 mg/ml MTT solution (3-[4,5-dimethylthiazol-2-yl]-2,5-diphenyl tetrazolium bromide) for 3 h at 37° C. […] Two aliquots of every sample were transferred to a 96 well plate for the reading. The absorbance (OD) was read at the wavelength of 570 nm with a colorimeter (Tecan model Infinite F200) equipped with a microplate reader. […]

Sodium hyaluronate [Hyaluronic acid (HA)]
OD405 ([1]; 1.25 mg/ml + positive control (anti-human IgE receptor)): 0.879
OD405 ([1]; 1.25 mg/ml, sample alone (spontaneous degranulation)): 0.086
% degranulation inhibition ([1]; 1.25 mg/ml): 15.7%
OD405 ([1]; 2.5 mg/ml + positive control (anti-human IgE receptor)): 0.690
OD405 ([1]; 2.5 mg/ml, sample alone (spontaneous degranulation)): 0.084
% degranulation inhibition ([1]; 2.5 mg/ml): 35.3%
OD405 ([1]; 5 mg/ml + positive control (anti-human IgE receptor)): 0.527
OD405 ([1]; 5 mg/ml, sample alone (spontaneous degranulation)): 0.077
% degranulation inhibition ([1]; 5 mg/ml): 52.3%
OD405 ([1]; 10 mg/ml + positive control (anti-human IgE receptor)): 0.255
OD405 ([1]; 10 mg/ml, sample alone (spontaneous degranulation)): 0.065
% degranulation inhibition ([1]; 10 mg/ml): 80.6%

Positive control: positive control of Example 10: cells treated with human insulin
IL-1α, 6 hours ([2]; culture medium at 6 hours): 105.57 pg/mL
IL-1α, 24 hours ([2]; culture medium at 24 hours): 597.32 pg/mL
% cell viability (ds) ([3]; 24 hours): 136.73%
% cell viability (ds) ([3]; 48 hours): 136.72 (8.16) %
% protein synthesis (ds) ([4]; 24 hours): 140.65%
% protein synthesis (ds) ([4]; 48 hours): 149.65 (10.83) %

CCCCCCCCCCCCOS(=O)(=O)[O-].[Na+] [PC, sodium dodecyl sulphate]
Mean relative viability (%) [5]: 2.16%
Mean IL-1α release (%) [6]: 235.35%

Triton X-100
OD405 ([1]; controls: maximal degranulation by anti-human IgE receptor antibodies, 1% Triton X-100 lysate, negative control 0.068): 1.852

CCCCCCCCCCCCOS(=O)(=O)[O-].[Na+] [Positive control (PC), sodium lauryl sulfate]
viability at 70 min, 0.3 % [7]: 47.4%
